Experimental data taken from publication PMC5717164 (Nature Communications, 2017).

Experiments:
[1] = molecular target: T1, D-alanine:D-alanine ligase (EcDdlB) (Escherichia coli, UniProt P07862); experiment: co-crystal structures at […] Å (with D-Ala-D-Ala) and […] Å (with DCSP, 4C5A); assay type: binding
T1 construct: gene ddlB; all 306 residues of the native protein, with amino-terminal histidine-tag

[2] = molecular target: T1, D-alanine:D-alanine ligase (EcDdlB); experiment: co-crystal structure at […] Å (formed in situ from ATP and DCS); assay type: binding

Nc1ncnc2c1ncn2[C@@H]1O[C@H](COP(=O)(O)OP(=O)(O)O)[C@@H](O)[C@H]1O [ADP]
co-crystal structures at 1.5 Å (with D-Ala-D-Ala) and 1.65 Å (with DCSP, 4C5A) [1]: The adenine ring of the ATP or ADP ligand lies in a pocket mainly composed of hydrophobic and aromatic residues

NC1CON=C1OP(=O)(O)O [DCSP, phosphorylated D-cycloserine]
co-crystal structure at 1.65 Å (formed in situ from ATP and DCS) [2]: phosphorylated DCS was bound in the high-affinity D-alanine binding site (D-Ala1)
